Assay [1] has as its system human neutrophils. The assay is described as follows: HxA3-induced rise in intracellular calcium in neutrophils with internalised GTP-γ-S or GTP. The class given is cell-based. The conditions noted are these: for effect of internalised nucleotide on HxA3-induced rise in intracellular calcium: approximate cytosolic concentration 21 μM. The text has this:
(§1) For measurement of intracellular calcium, the cells were centrifuged and loaded with INDO-1 AM (see Methods for details). The change in intracellular calcium was monitored with fluorescence spectrophotometer at 331 nm excitation and 410 nm emission. […] Data represents the Mean±SD (n=4 separate experiments).
(§2) The method of Jaconi et al (1993, J. Biol. Chem. 268, 26077-26078] was employed with modifications to incorporate GTP-γ-S or GTP into human neutrophils. Specifically, 20×10^6 cells were incubated in 100 μl of sucrose-rich (500 mM) buffer containing in mM: NaCl 140, KCl 5, MgCl2 1, Hepes sodium-free 10, glucose 10, and EGTA 1, 10% polyetylene glycol 1000, pH 7.3. The buffer either contained nothing else (control) or GTP-γ-S (50 mM) or GTP (50 mM). The cells were incubated for 15 min at 37° C. to allow fluid-phase endocytosis of extracellular material. The cells were hypotonically shocked during 2 min at 37° C. by the addition of 1 mL of hypotonic medium made up of 1 part normal medium and 0.66 parts of water [Hallet & Campbell. 1983, Immunology, 50, 487-495]. The cells were then centrifuged at 900 rpm×5 min and resuspended in 2 mL of calcium-free assay medium for the binding studies or in RPMI 1640 for the calcium measurements. […] The particulate matter was sedimented through centrifugation and fluorescence in the supernatant was measured in a fluorescence spectrophotometer and 430 nm excitation, 540 nm emission using dilutions of the dye as standard. While unshocked neutrophils contained virtually no fluorescence above background, the shocked cells contained approximately 24 ng dye/4×10^6 cells. […]
(§3) Intracellular free calcium concentrations were monitored continuously in a Perkin-Elmer fluorescence spectrophotometer (Model 65040) using Indo-I AM-loaded neutrophils. […]
(§4) Unloaded dye was removed by centrifugation and the cells were resuspended in fresh RPMI 1640(1 mL). […] The resulting effect was recorded on a chart recorder (LKB model 2210, Pharmacia, Sweden) at 1 cm/min chart speed for the next 5 min (FIG. 20).
(Calcium assays in cells follow changes in intracellular calcium, usually with a dye or a luminescent sensor.)

Assay [2] deals with hepoxilin binding protein in neutrophils. The experiment in a line: Binding of [3H]-HxA3 (8S) to neutrophils with internalised GTP-γ-S or GTP. Set-up: species or system human. As to conditions: approximate cytosolic concentration 21 μM.
Description: as §1
as §2, with “487-495].” for “487-495]. The cells were then centrifuged at 900 rpm×5 min and resuspended in 2 mL of calcium-free assay medium for the binding studies or in RPMI 1640 for the calcium measurements.”, “standard.” for “standard. While unshocked neutrophils contained virtually no fluorescence above background, the shocked cells contained approximately 24 ng dye/4×10^6 cells.”

For assay [3], the system named is bleomycin-induced lung fibrosis. The assay is described as follows: Bleomycin-induced lung injury mouse model. The conditions noted are these: for inhibition of bleomycin-evoked lung fibrosis, relative potency: 200 μg/mouse bleomycin, various concentrations. Type of assay: in vivo. The method, then: Mice were divided into 7 groups, each containing 5 animals. All groups were administered i.p. saline+7% ethanol as vehicle. Group 1 received only vehicle. Groups 2-7 received intratracheal bleomycin. Bleomycin is an antibiotic having antineoplastic activity. It is used clinically to treat malignancies such as lymphoma and testicular cancer. However, it has several side effects such as causing lung fibrosis characterized by diffuse alveolar hemorrhage and marked accumulation of inflammatory cells and an increase in collagen synthesis. Additionally, Group 3 received Trolox antioxidant, Group 4 received H1, Group 5 received H2, Group 6 received H3, and Group 7 received H4. All hepoxilins were dissolved in 7 μl ethanol and diluted to 100 μl saline for i.p. administration. All compounds were administered daily at the dose of 100 μg/20 g (5000 μg/kg) mouse for 8 days. Lungs from all animals were perfused and fixed for histology. […] As in section B1 above, the effective concentration of the drugs is unknown due to the still undetermined uptake and distribution in the body. The present study served as an indicator of biological activity in vivo. The study was also conducted using saline or 200 μg/mouse bleomycin. In these studies the hepoxilin analogs H1 and H2 were administered in various concentrations (FIGS. 14A-14E). […] Lung fibrosis was associated with increased collagen synthesis (FIGS. 15A, 15B). […] Collagen staining was done using sirius red and fast green.

Assay [4] relates to bleomycin-evoked vascular permeability. The assay is described as follows: Bleomycin-evoked skin vascular permeability (Evans Blue). Type of assay: in vivo. The conditions noted are these: 100 ng intradermally, bleomycin 12 μg. Here is the method: H1 and 2 blocked the bleomycin (12 μg)—evoked vascular permeability at 100 ng intradermally. (FIGS. 18 and 19). Vascular permeability was measured using Evans Blue I.V. Hepoxilin analogs were intradermally applied and within 30 minutes, a formamide extraction of punched skin was done. Extraction and absorbance was read at 620 nm.

Assay [5] concerns human neutrophils. The experiment in a line: Rise in intracellular calcium in INDO-1AM loaded neutrophil suspensions, normal vs Type 1 diabetic. The class given is cell-based.
Description: It was previously reported that the native HX cause a rise in intracellular calcium in suspensions of human neutrophils. […] In view of the findings reported above on alterations in the hepoxilin binding protein in diabetes, it was investigated whether the response to varied amounts of hepoxilin in terms of calcium release was altered in Type 1 diabetic neutrophils. This involved measurement of the rise in intracellular calcium in INDO-1AM loaded neutrophil suspensions spectrofluorometrically after addition of HxA3.
Normal and diabetic neutrophils were compared to 4 concentrations of HxA3, i.e. 100, 200, 500 and 1000 ng added in 1 μl DM50 to 2×10^6 cells/ml. […] Additional data was obtained by administering 1000 ng of hepoxilin five minutes after the first test. Previous results with normal neutrophils have shown that the response to a second addition of hepoxilin is blunted depending on the extent of calcium rise in the first test. […]
as §3, §4

The structures appear in SMILES notation.

Regarding `Nc1nc2c(ncn2[C@@H]2O[C@H](COP(=O)(O)OP(=O)(O)OP(O)(O)=S)[C@@H](O)[C@H]2O)c(=O)[nH]1` [GTP-γ-S], the “effect of internalised nucleotide on HxA3-induced rise in intracellular calcium” value in assay [1] is “inhibition”. In addition, the “effect of internalised nucleotide on binding of [3H]-HxA3” value in assay [2] is given as “inhibition”.

In the case of `Nc1nc2c(ncn2[C@@H]2O[C@H](COP(=O)(O)OP(=O)(O)OP(=O)(O)O)[C@@H](O)[C@H]2O)c(=O)[nH]1` [GTP], the “effect of internalised nucleotide on HxA3-induced rise in intracellular calcium” value in assay [1] is recorded as “no significant change”.

For `CCCCC/C=C\CC1CC1/C=C/[C@@H](O)C/C=C\CCCC(=O)OC` (stereo partly drawn) [H1, 8(S)-hydroxy-11 ,12-cyclopropyl-eicosa-5Z, 10E, 14Z-trienoic acid methyl ester], the “inhibition of bleomycin-evoked lung fibrosis, relative potency” value in assay [3] is on record as “most potent”. In addition, the “dose dependence of activity against lung fibrosis” value in assay [3] (400 μg/kg, 2 mg/kg, 4 mg/kg) is reported as “dose dependent”. For the same compound, the “potency against lung fibrosis compared with Amifostine and Trolox” value in assay [3] (Amifostine 200 mg/kg, Trolox 30 mg/kg) was “more potent than Amifostine (200 mg/kg) or Trolox (30 mg/kg)”. Moreover, the “threshold activity against lung fibrosis” value in assay [3] (i.p.) was determined as 400 µg/kg. Also, the bleomycin-evoked vascular permeability result in assay [4] is reported as “blocked”.

For the compound `CCCCC/C=C\CC1CC1/C=C/[C@H](O)C/C=C\CCCC(=O)OC` (stereo partly drawn) [H2, 8(R)hydroxy-11,12-cyclopropyl-eicosa-5Z, 10E, 14Z-trienoic acid methyl ester], the “inhibition of bleomycin-evoked lung fibrosis, relative potency” value in assay [3] is “most potent”. Also, the bleomycin-evoked vascular permeability result in assay [4] is given as “blocked”.

Consider `CCCCC/C=C\C[C@@H]1O[C@H]1/C=C/C(O)C/C=C\CCCC(=O)O` (stereo partly drawn) [HxA3, 8(S,R)-hydroxy-11(S),12(S)-epoxy-eicosa-5Z, 9E, 14Z-trienoic acid], for which the “change in intracellular calcium” value in assay [1] (2×10^6 cells in 1 mL calcium-free buffer, 37° C.) is “rapid rise in intracellular calcium”. The “calcium response to second addition, diabetic vs normal neutrophils” value in assay [5] (1000 ng five minutes after the first test) was “more inhibition”. Moreover, the “rise in intracellular free calcium, diabetic vs normal neutrophils” value in assay [5] (100, 200, 500 and 1000 ng in 1 μl to 2×10^6 cells/ml) is “diabetic neutrophils are more responsive”.

These data come from US6673785B1, “Use of hepoxilins or hepoxilin analogs as antidiabetics, antiinflammatory agents” (priority 1999, dated 2004).
